Laboratory results reported in PubChem BioAssay (NCI).
Several values for one entry are separate records, joined by “and”; a condition that tells them apart may be missing. Identical values can stand only once.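 In this assay, cells in 96-well plates receive the compound at five concentrations for 48 hours. Endpoints are linearly interpolated between the surrounding concentrations. At the GI50, growth is halved. TGI denotes the concentration required for complete inhibition of growth.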

How the values were obtained:
Experiment in all cases: inhibition of tumour cell growth, NCI panel, 48 h
HCT-116 colon = test system: HCT-116 colon
OVCAR-8 ovarian = test system: OVCAR-8 ovarian
SK-MEL-2 melanoma = test system: SK-MEL-2 melanoma
SNB-19 CNS = test system: SNB-19 CNS
SK-MEL-28 melanoma = test system: SK-MEL-28 melanoma
M14 melanoma = test system: M14 melanoma
CCRF-CEM leukemia = test system: CCRF-CEM leukemia
U251 CNS = test system: U251 CNS
OVCAR-4 ovarian = test system: OVCAR-4 ovarian
OVCAR-5 ovarian = test system: OVCAR-5 ovarian

Row | Compound | GI50 (HCT-116 colon) | TGI (HCT-116 colon) | GI50 (OVCAR-8 ovarian) | TGI (OVCAR-8 ovarian) | GI50 (SK-MEL-2 melanoma) | TGI (SK-MEL-2 melanoma) | GI50 (SNB-19 CNS) | TGI (SNB-19 CNS) | GI50 (SK-MEL-28 melanoma) | TGI (SK-MEL-28 melanoma) | GI50 (M14 melanoma) | TGI (M14 melanoma) | GI50 (CCRF-CEM leukemia) | TGI (CCRF-CEM leukemia) | GI50 (U251 CNS) | TGI (U251 CNS) | GI50 (OVCAR-4 ovarian) | TGI (OVCAR-4 ovarian) | GI50 (OVCAR-5 ovarian) | TGI (OVCAR-5 ovarian)
1 | O=[N+]([O-])c1cc(Cl)c(Cl)c([N+](=O)[O-])c1Cl | 0.624 µM | 2.12 µM | 1.34 µM | 2.97 µM | 1.8 µM | 3.37 µM | 6.55 µM | 22.6 µM | 1.74 µM | 3.14 µM | 0.642 µM | 2.23 µM | 0.236 µM | > 100 µM | 1.03 µM | 2.61 µM | 1.69 µM | 3.06 µM | 2.13 µM | 4.18 µM
2 | O=C(Nc1cc(Cl)c(Cl)cc1Cl)C(=O)C1C=CCS1(=O)=O (configuration not stated) | – | > 100 µM | – | > 100 µM | – | > 100 µM | – | > 100 µM | – | > 100 µM | – | > 100 µM | – | > 100 µM | – | > 100 µM | – | > 100 µM | – | > 100 µM
3 | CC(=O)CC(=O)Nc1ccc2ccccc2c1 | – | > 100 µM | – | > 100 µM | – | > 100 µM | – | > 100 µM | – | > 100 µM | – | > 100 µM | – | > 100 µM | – | > 100 µM | – | > 100 µM | – | > 100 µM
4 | O=c1ccn(C2OC(CO)C(O)C2F)c(=O)[nH]1 (configuration not stated) | > 1000 µM | > 1000 µM | > 1000 µM | > 1000 µM | > 1000 µM | > 1000 µM | > 1000 µM | > 1000 µM | > 1000 µM | > 1000 µM | > 1000 µM | > 1000 µM | – | > 1000 µM | > 1000 µM | > 1000 µM | 26 µM | 840 µM and > 100 µM | > 1000 µM | > 1000 µM
5 | CC[C@H](NC(=O)[C@H](C)NC)C(=O)N1C[C@@H](O)C[C@H]1Cc1c(-c2[nH]c3cc(F)ccc3c2C[C@@H]2C[C@H](O)CN2C(=O)[C@H](CC)NC(=O)[C@H](C)NC)[nH]c2cc(F)ccc12 | > 100 µM | > 100 µM | 31.2 µM | > 100 µM | 6.01 µM | > 100 µM | > 100 µM | > 100 µM | > 100 µM | > 100 µM | > 100 µM | > 100 µM | 1.51 µM | > 100 µM | 93.2 µM | > 100 µM | 0.0598 µM | – | > 100 µM | > 100 µM
6 | CC(=O)[O-].CC(=O)[O-].[Pt+2].c1cscn1.c1cscn1 | 53.9 µM | > 100 µM | 31.3 µM | 71.7 µM | > 100 µM | > 100 µM | > 100 µM | > 100 µM | > 100 µM | > 100 µM | > 100 µM | > 100 µM | 54 µM | > 100 µM | 54.5 µM | > 100 µM | 74.3 µM | > 100 µM | > 100 µM | > 100 µM
7 | O=C1c2ccccc2C(=O)N1CCCSc1ccccc1 | – | > 100 µM | – | > 100 µM | – | > 100 µM | – | > 100 µM | – | > 100 µM | – | > 100 µM | – | > 100 µM | – | > 100 µM | – | > 100 µM | – | > 100 µM
8 | CO[C@@H]1/C=C\C=C(/C)C(=O)NC2=CC(=O)C(NCCN(C)C)=C(C[C@@H](C)C[C@@H](OC)[C@@H](O)[C@H](C)/C=C(\C)[C@H]1OC(N)=O)C2=O | 0.0192 µM | 1.52 µM and 2.3 µM | 0.0216 µM | 2.95 µM and 6.36 µM | – | 21.3 µM and 12.3 µM | – | 7.99 µM and 15.5 µM | – | > 100 µM and 32.4 µM | 0.0125 µM | 6.51 µM and 4.99 µM | 0.0344 µM | 3.23 µM and 9.76 µM | 0.0144 µM | 8.18 µM | – | 4.76 µM and 4.52 µM | 0.406 µM and 0.11 µM | 9.23 µM and 7.52 µM
9 | CN[C@@H](C)C(=O)N[C@H](C(=O)N1CCC[C@H]1C(=O)N[C@H]1c2ccccc2C[C@H]1OCC#CC#CCO[C@@H]1Cc2ccccc2[C@@H]1NC(=O)[C@@H]1CCCN1C(=O)[C@@H](NC(=O)[C@H](C)NC)C1CCCCC1)C1CCCCC1 | 3.68 µM | 14.1 µM | 0.452 µM | 8.31 µM | 1.18 µM | 3.02 µM | 3.24 µM | 8.87 µM | 1.8 µM | 3.55 µM | 5.72 µM | 18 µM | 1.1 µM | 4.27 µM | 1.94 µM | 4.79 µM | < 0.01 µM | 10.9 µM | 18.1 µM | 34.6 µM
10 | CC(=O)N[C@H]1C=C[C@@H]2/C=C(C)/C=C/[C@@H](C)[C@H]([C@H](C)[C@H](O)[C@@H](C)NC(C)=O)OC(=O)/C=C/C=C(C)\C=C\[C@]2(C)C1 | 0.00564 µM and 0.0045 µM | 4.65 µM and > 45 µM | – | 4.65 µM and > 45 µM | 5.11 µM | 17.9 µM | 0.256 µM and 0.072 µM | 4.65 µM and > 45 µM | 0.0306 µM and 0.00647 µM | 4.65 µM and > 45 µM | 0.00734 µM and 0.0045 µM | – | 6.32 µM | > 45 µM | 0.00747 µM and 0.0045 µM | 4.65 µM and > 45 µM | 6.59 µM | > 45 µM | 14.1 µM | > 45 µM
11 | ClCc1cccc(Cn2cnc3c(NC45CC6CC(CC(C6)C4)C5)ncnc32)c1 | 12.6 µM | 30.4 µM | 17.8 µM | 50.8 µM | 16.7 µM | 48.1 µM | 17.2 µM | 44.2 µM | 25 µM | > 78.7 µM | 12.1 µM | 27.6 µM | 16 µM | > 69.1 µM | 14.8 µM | 30.8 µM | 15.5 µM | 38.8 µM | 19.2 µM | 36.4 µM
12 | CCCCc1c2c(nc3c1CCC/C3=C\c1ccccc1)C(=O)CCC2 | – | 39.5 µM | – | > 100 µM | – | 33.9 µM | – | 44.2 µM | – | 41.8 µM | – | 41.9 µM | – | 61.7 µM | – | 34 µM | – | 67.9 µM | – | 43.1 µM
13 | CC(C)CS(=O)(=O)/C(=C(\c1ccc(Br)cc1)S(=O)(=O)CC(C)C)c1ccc(Br)cc1 | – | > 100 µM | – | > 100 µM | – | > 100 µM | – | > 100 µM | – | > 100 µM | – | > 100 µM | – | > 100 µM | – | > 100 µM | – | > 100 µM | – | > 100 µM
14 | CC(=O)OCC1OC(N2C(=O)C(=O)c3cc(C)ccc32)C(OC(C)=O)C(OC(C)=O)C1OC(C)=O (configuration not stated) | – | > 100 µM | – | > 100 µM | – | > 100 µM | – | > 100 µM | – | 91.8 µM | – | > 100 µM | – | > 100 µM | – | > 100 µM | – | > 100 µM | – | > 100 µM
